Tested on: S. albus J1074 and the Δpfk-derivative strain
Assay: Diamide sensitivity disc assay
Assay type: cell-based, Streptomyces albus J1074
Conditions: 100 mM diamide disc; ΔpfkSA mutant relative to wild type S. albus J1074; R5A plates, 30° C., 24 h
Description: Lawns of S. albus J1074 wild-type and Δpfk mutant were generated by overlaying R5A plates (sucrose 100 g/l, K2SO4 0.25 g/l, MgCl2 10.12 g/l, glucose 10 g/l, Casamino acids 0.1 g/l, yeast extract 5 g/l, MOPS 21 g/l, NAOH 2 g/l, R2YE trace elements 2 ml/l, 15 g/L agar) with 3 ml soft Nutrient Agar containing 10^7 fresh spores. Immediately after plating, paper discs soaked in 100 mM diamide were added and plates were incubated at 30° C. for 24 h.

CN(C)C(=O)/N=N/C(=O)N(C)C [diamide]
sensitivity to diamide (halo around disc): less sensitive

Reference: patent US20210163964A1, “ENGINEERED STREPTOMYCES ALBUS STRAINS” (University of Florida Research Foundation, Incorporated, priority 2018, published 2021)
